The values that follow come from patent publication US5541187A, “6-heterocycyclyl pyrazolo[3,4-d]pyrimidin-4-ones and compositions and method of use thereof” (Sterling Winthrop Inc., priority 1993, dated 1996).

For orientation: IC50 means the concentration that gives 50% inhibition. High values mean weaker potency in that assay, low ones greater potency in that assay.

The test system of this assay is cGMP-PDE I. Briefly: cGMP-PDE I inhibitory activity (cyclic nucleotide hydrolysis, isolated PDE isozyme). The note with it: for IC50: values marked * are from two separate experimental runs. The format is biochemical, various animal species and man. Here is the method: Multiple isozymic forms of cyclic nucleotide phosphodiesterase (PDE) have been identified in mammalian cells. […] Elevation of intracellular cGMP in vascular smooth muscle triggers a cascade of events that leads to a reduction in muscle tone while elevations in renal tubule cell cGMP stimulates natriuresis and diuresis. Vascular smooth muscle and renal cells contain a phosphodiesterase isozyme that has a low Km (1 μM) for the hydrolysis of cGMP. This isozyme has been referred to as the cGMP-PDE or cGMP-PDE I since it elutes from an anion-exchange sepharose resin in the first peak of PDE activity at a sodium acetate concentration between 150-200 mM. Thus inhibition of the cGMP-PDE isozyme is a viable subcellular mechanism by which increases in cGMP can produce a reduction in total peripheral resistance and a stimulation of natriuresis and diuresis. The development of cGMP-PDE inhibitors represents an approach for the discovery of agents useful for treating heart failure and hypertension. For example, compounds having high inhibitory potency for the cGMP-PDE are expected to lower blood pressure and induce natriuresis and diuresis.
The cGMP-PDE and other PDE isozymes were isolated from cardiovascular tissues (heart and aorta) of various animal species and man by anion-exchange and affinity chromatography as described by Silver et al., Sec. Messeng. Phos. 13:13-25, 1991; PDE activity, in the presence and absence of test compounds was determined essentially as described by Thompson et al., Adv. Cyclic Nucleotide Res. 10:69-92. To determine the potency and selectivity of compounds as PDE inhibitors, compounds are screened for their effect on cyclic nucleotide hydrolysis at 10 μM. If ≥50% inhibition of PDE activity is observed, an IC50 value (concentration of compound causing 50% reduction in PDE activity) and corresponding 95% confidence intervals are generated. The IC50 values are calculated from concentration-response curves as described by Tallarida and Murray, Manual of Pharmacologic Calculations with Computer Programs, Procedure 8, Graded Dose-response, pp. 14-19, Springer-Verlag, N.Y., 1981.

Where “and” joins values, the source holds several entries; their conditions need not be identical. Identical values can stand only once.

In turn, `Cc1[nH]n(C2CCCO2)c2nc(-c3ccncc3)nc(=O)c1-2` (stereo not shown) [Example 104, 1-(2-tetrahydrofuranyl)-3-methyl-6-(4-pyridyl)-pyrazolo-[3,4-d]pyrimidin-4-one] displayed an IC50 of 12400 nM.

Regarding `Cc1[nH]n(Cc2cccc(C(=O)O)c2)c2nc(-c3ccncc3)nc(=O)c1-2` [Example 112, 1-(3-Carboxyphenylmethyl)-3-methyl-6-(4-pyridyl)-pyrazolo[3,4-d]pyrimidin-4-one], the “Percent Inhibition cGMP-PDE I” value runs as follows: (1 μM) 4%; (10 μM) 52%. Turning to `Cc1nn(CCCCCCCCC(=O)O)c2nc(-c3ccncc3)[nH]c(=O)c12` [Example 78], for the setting “1 μM”, the “Percent Inhibition cGMP-PDE I” value stood at 54%. With `O=c1[nH]c(-c2ccncc2)nc2c1c([N+](=O)[O-])nn2C1CCCC1` [Example 74], the “Percent Inhibition cGMP-PDE I” value worked out at 0% (1 μM) and 32% (10 μM). `CCc1nn(C(C)(C)C)c2nc(-c3ccncc3)[nH]c(=O)c12` [Example 94] registered an IC50 of 480 nM. As for `CC(C)(C)c1nn(C2CCCC2)c2nc(-c3ccncc3)[nH]c(=O)c12` [Example 95], the “Percent Inhibition cGMP-PDE I” value runs as follows: (1 μM) 9%; (10 μM) 32%. Consider `O=c1[nH]c(-c2ccncc2)nc2c1c(Br)nn2C1CCCC1` [Example 73], for which 1800 nM corresponded to half-maximal inhibition (IC50). With `CCc1[nH]n(C2CCCC2)c2nc(-c3cc(C)nc(Cl)c3)nc(=O)c1-2` [Example 117, 1-Cyclopentyl-3-ethyl-6-(2-chloro-6-methyl-4-pyridyl)pyrazolo[3,4-d]pyrimidin-4-one], the “Percent Inhibition cGMP-PDE I” value amounted to 11% (1 μM) and 22% (10 μM).

As to `Cc1[nH]n(C2CCC2)c2nc(-c3ccncc3)nc(=O)c1-2` [Example 102, 1-Cyclobutyl-3-methyl-6-(4-pyridyl)-pyrazolo-[3,4-d]pyrimidin-4-one], the IC50 is 1900 nM. The same measure, in the same setting: the figure for `Cc1nn(CCCCCC(=O)O)c2nc(-c3ccncc3)[nH]c(=O)c12` [Example 80] is 2700 nM. As to `Cc1[nH]n(C2CCCC2C)c2nc(-c3ccncc3)nc(=O)c1-2` (stereo not shown) [Example 1e, 1-(2-Methylcyclopentyl)-3-methyl-6-(4-pyridyl)pyrazolo [3,4-d]pyrimidin-4-one], the “Percent Inhibition cGMP-PDE I” value is reported as 23% (0.1 μM) and 59% (1 μM). As for `CCc1[nH]n(C2CCCC2)c2nc(-n3ccnc3)nc(=O)c1-2` [Example 122d, 1-Cyclopentyl-3-ethyl-6-(1-imidazolyl)pyrazolo[3,4-d]pyrimidin-4-one], the “Percent Inhibition cGMP-PDE I” value amounted to 16% (1 μM) and 46% (10 μM). On to `Cc1nn(C2CCCCC2)c2nc(-c3ccncc3)[nH]c(=O)c12` [Example 3e, 1-Cyclohexyl-3-methyl-6-(4-pyridyl)-pyrazolo[3,4-d]pyimidin-4-one], for which the IC50 was 460 nM and 560 nM. As to `CCN(CC)CCCn1nc(C)c2c(=O)[nH]c(-c3ccncc3)nc21` [Example 99, 1-(3-Diethylaminopropyl)-3-methyl-6-(4-pyridyl)pyrazolo[3,4-d]pyrimidin-4-one. 1/2 hydrate], the “Percent Inhibition cGMP-PDE I” value turned out to be 0% (1 μM) and 12% (10 μM). In turn, `CCc1[nH]n(C2CCCC2)c2nc(-c3ccnc(-n4ccnc4)c3)nc(=O)c1-2` [Example 121c, 1-Cyclopentyl-3-ethyl-6-[2-(1-imidazolyl)-4-pyridyl]pyrazolo[3,4-d]pyrimidin-4-one] gave an IC50 of 240 nM. Further, under “0.1 μM”, the “Percent Inhibition cGMP-PDE I” value was 11%. Besides, the “Percent Inhibition cGMP-PDE I” value (1 μM) turned out to be 68%.

The compound `Cc1nn(C2CCOC2)c2nc(-c3ccncc3)[nH]c(=O)c12` (stereo not shown) [Example 101, 1-(3-Tetrahydrofuranyl)-3-methyl-6-(4-pyridyl)-pyrazolo-[3,4-d]pyrimidin-4-one-1/4 hydrate] showed an IC50 of 1780 nM. On to `Cc1nn(C2CCS(=O)(=O)C2)c2nc(-c3ccncc3)[nH]c(=O)c12` (stereo not shown) [Example 18c, 1-(3-Tetrahydrothienyl-1,1-dioxide)-3-methyl-6-(4-pyridyl)pyrazolo[3,4-d]pyrimidin-4-one methanesulfonate], for which the “Percent Inhibition cGMP-PDE I” value was 0% (1 μM) and 45% (10 μM). Regarding `CCc1[nH]n(C2CCCC2)c2nc(-c3cccnc3)nc(=O)c1-2` [Example 137, 1-Cyclopentyl-3-ethyl-6-(3-pyridyl)pyrazolo[3,4-d]pyrimidin-4-one], the “Percent Inhibition cGMP-PDE I” value by setting is: (0.1 μM) 27%; (1 μM) 64%. Consider `O=c1[nH]c(-c2ccncc2)nc2c1c(Cl)nn2C1CCCC1` [Example 72], for which 1150 nM corresponded to half-maximal inhibition (IC50). As to `CSc1[nH]n(C2CCCC2)c2nc(-c3ccncc3)nc(=O)c1-2` [Example 19c, 1-Cyclopentyl-3-methylthio-6-(4-pyridyl)pyrazolo[3,4-d]pyrimidin-4-one], the “Percent Inhibition cGMP-PDE I” value reads like this: (1 μM) 32%; (10 μM) 74%. Regarding `CCc1[nH]n(C2CCCC2)c2nc(C3CCNc4ccccc43)nc(=O)c1-2` (stereo not shown) [Example 9, 1-Cyclopentyl-3-ethyl-6-(1,2,3,4-tetrahydro-4-quinolinyl)-pyrazolo[3,4-d]pyrimidin-4-one], the IC50 came to 280 nM. Regarding `Cc1ccccc1Cn1nc(C)c2c(=O)[nH]c(-c3ccncc3)nc21` [Example 87], the IC50 is 2700 nM and 3600 nM. As for `Cc1nn(Cc2ccccc2)c2nc(-c3ccncc3)[nH]c(=O)c12` [Example 77], the “Percent Inhibition cGMP-PDE I” value stood at 13% (1 μM) and 80% (10 μM). On to `O=c1[nH]c(-c2ccncc2)nc2c1cnn2C1CCCC1` [Example 71], for which the IC50 amounted to 3700 nM. Take `COc1cnccc1-c1nc2n(C(C)(C)C)[nH]c(Cc3ccncc3)c-2c(=O)n1` [Example 134b, 1-tert-Butyl-3-(4-pyridylmethyl)-6-(3-methoxy-4-pyridyl)pyrazolo[3,4-d]pyrimidin-4-one]: the “Percent Inhibition cGMP-PDE I” value came to 35% (0.01 μM) and 55% (0.1 μM). As to `CCc1nn(C2CCCC2)c2nc(-c3cccn4ccnc34)[nH]c(=O)c12` [Example 114c, 1-cyclopentyl-3-ethyl-6-(8-imidazo[1,2-a]pyridine)pyrazolo[3,4-d]pyrimidin-4-one methanesulfonate], the “Percent Inhibition cGMP-PDE I” value (1 μM) is recorded as 5% and the “Percent Inhibition cGMP-PDE I” value (10 μM) is on record as 52%.

With `Cc1[nH]n(Cc2cc([N+](=O)[O-])ccc2Cl)c2nc(-c3ccncc3)nc(=O)c1-2` [Example 106, 1-(2-Chloro-5-nitrophenylmethyl)-3-methyl-6-(4-pyridyl)pyrazolo[3,4-d]pyrimidin-4-one], the “Percent Inhibition cGMP-PDE I” value is, setting by setting: (1 μM) 24%; (10 μM) 63%.

For the compound `Cc1nn(CC2CCCC2)c2nc(-c3ccncc3)[nH]c(=O)c12` [Example 89], the “Percent Inhibition cGMP-PDE I” value runs as follows: (1 μM) 17%; (10 μM) 77%. As to `CCc1[nH]n(C2CCCC2)c2nc(-c3ccncc3OCCOC)nc(=O)c1-2` [Example 131b, 1-Cyclopentyl-3-ethyl-6-(3-(2-methoxyethoxy)-4-pyridyl)pyrazolo[3,4-d]pyrimidin-4-one], the “Percent Inhibition cGMP-PDE I” value by setting is: (0.01 μM) 22%; (0.1 μM) 61%; (1 μM) 86%. For `Cc1nn(Cc2cccc(Cl)c2)c2nc(-c3ccncc3)[nH]c(=O)c12` [Example 81], half-maximal inhibition (IC50) was put at 200 nM. Same read-out and setting: the figure for `CC(C)(C)n1[nH]c(CC2CCCCC2)c2c(=O)nc(-c3ccncc3)nc1-2` [Example 5e, 1-tert-Butyl-3-(cyclohexylmethyl)-6-(4-pyridyl)-pyrazolo[3,4-d]pyrimidin-4-one] is 260 nM. With `Cc1[nH]n(Cc2cccc(C(N)=O)c2)c2nc(-c3ccncc3)nc(=O)c1-2` [Example 113, 1-(3-Carbamoylphenylmethyl)-3-methyl-6-(4-pyridyl) pyrazolo[3,4-d]pyrimidin-4-one], the “Percent Inhibition cGMP-PDE I” value (1 μM) came out at 0% and the “Percent Inhibition cGMP-PDE I” value (10 μM) was found to be 48%. `Cc1n[nH]c2nc(-c3ccncc3)[nH]c(=O)c12` [Example 76]: the “Percent Inhibition cGMP-PDE I” value reads like this: (1 μM) 0%; (10 μM) 24%. `CC(C)(C)n1ncc2c(=O)[nH]c(-c3ccncc3)nc21` [Example 92]: the midpoint of inhibition, the IC50, lay at 680 nM. For `CCCOc1cnccc1-c1nc2n(C3CCCC3)[nH]c(CC)c-2c(=O)n1` [Example 133c, 1-Cyclopentyl-3-ethyl-6-(3-propoxy-4-pyridyl)pyrazolo[3,4-d]pyrimidin-4-one], the “Percent Inhibition cGMP-PDE I” value (0.01 μM) came to 82%. `Cc1[nH]n(C2CCCC2)c2nc(C3CCN(C(=O)C(F)(F)F)CC3)nc(=O)c1-2` [Example 116, 1-Cyclopentyl-3-methyl-6-(1-trifluoroacetyl-4-piperidinyl)pyrazolo[3,4-d]pyrimidin-4-one]: the “Percent Inhibition cGMP-PDE I” value (1 μM) is listed as 34%. Regarding `CC(C)(C)n1[nH]c(Nc2ccccc2)c2c(=O)nc(-c3ccncc3)nc1-2` [Example 6e, 1-tert-Butyl-3-phenylamino-6-(4-pyridyl)-pyrazolo[3,4-d]-pyrimidin-4-one], inhibition was half-maximal at 620 nM (IC50).
